Patent publication US11155523B2, “Biphenyl compound as CCR2/CCR5 receptor antagonist” (Medshine Discovery Inc., priority 2016, dated 2021)

Biological target: T1, CCR2 (Homo sapiens, UniProt P41597)
T1 construct: expressed in transfected cells; host or cells: HEK293, clone C7, passage P6
Assay: CCR2 in vitro test: intracellular calcium signal detected by FLIPR
Assay type: cell-based
Details: HEK293 cells expressing CCR2, agonist MCP-1 at EC80, calcium signal
Description: (§1) Experimental Example 1: CCR2/CCR5 In Vitro Test
(§2) The intracellular calcium signal was detected by FLIPR, and the IC50 value of the compound was used as an index to evaluate the inhibitory effect of the compound on CCR2 and CCR5 receptors.
(§3) 1. Cell line: The cells were inoculated and incubated in a 5% CO2 incubator at 37° C. overnight.
(§4) CCR2/CCR5 density: 1 M (20 k/well)
(§5) 2. Reagents: Fluo-4 Direct, (Invitrogen, Cat #F10471)
(§6) The compound was dissolved in DMSO to prepare a 10 mM solution, and the compound solution was placed in a nitrogen box.
(§7) Agonist reference compounds:
(§8) Preparation of probenecid in FLIPR assay buffer: 1 mL of FLIPR assay buffer was added to […] of probenecid to prepare a 250 mM solution, which is prepared fresh daily.
(§9) 2× (8 μM) Fluo-4 Direct™ Loading Buffer (per 10 mL) • Thaw a bottle of Fluo-4 Direct™ crystal (F10471). • Add 10 mL of FLIPR assay buffer to the vial. • Add 0.2 mL of probenecid to each 10 mL of Fluo-Direct. The final concentration of the assay was 2.5 mM. • Rotate it and place for >5 minutes (in absence of light). • Prepare fresh daily.
(§10) MCP-1 was diluted in FLIPR assay buffer 1:2 into 10 points, starting at 0.5 uM (final 100 nM). RANTES was diluted in FLIPR assay buffer 1:3 into 10 points, starting at 0.5 uM (final 100 nM). 20 uL of serially diluted compound buffer was added to each well of the DRC plate according to the compound plate map.
(§11) Standard compound was diluted in DMSO 1:3 into 11 points, starting at 1 mM. Test compound was diluted in DMSO 1:3 into 11 points, starting at 2 mM. 250 nL of compound solution was transferred into a cell plate using Echo (Greiner #781946).
(§12) (c) Take the cell plate out of the incubator, and gently dispense 20 uL of 2× Fluo-4 Direct wash-free loading buffer into a 384-well cell culture plate using a pipette. The final cell plate is 40 μL in volume.
(§13) (d) Incubate for 50 minutes at 37° C. under 5% CO2, and for 10 minutes at room temperature.
(§14) (e) Take the cell plate out of the incubator, and place it in FLIPR. Place the composite plate and the tip box in FLIPR.
(§15) (f) For DRC plate: • 1) Run the program on FLIPRTETRA. • 2) Read the fluorescent signal. • 3) Transfer 10 μL of compound from the DRC plate to the cell plate. • 4) Read the fluorescent signal. • 5) Calculate the “maximum−minimum” from Read 90 to the maximum allowed. Use FLIPR to calculate the EC80 value of each cell line. • 6) Prepare 5×EC80 concentration of the agonist reference compound.
(§16) (g) For the composite plate (1-add): • 1) Run the program on FLIPRTETRA. • 2) Transfer 10 μl, of 5×EC80 concentration of the agonist reference compound from the composite plate to the cell plate. • 3) Read the fluorescent signal. • 4) Calculate the “maximum−minimum” from Read 90 to the maximum allowed.
(§17) (h) Analyze the data using Prism, and calculate the IC50 value of the compound.

T1 sequence (P41597 whole entry, species assumed): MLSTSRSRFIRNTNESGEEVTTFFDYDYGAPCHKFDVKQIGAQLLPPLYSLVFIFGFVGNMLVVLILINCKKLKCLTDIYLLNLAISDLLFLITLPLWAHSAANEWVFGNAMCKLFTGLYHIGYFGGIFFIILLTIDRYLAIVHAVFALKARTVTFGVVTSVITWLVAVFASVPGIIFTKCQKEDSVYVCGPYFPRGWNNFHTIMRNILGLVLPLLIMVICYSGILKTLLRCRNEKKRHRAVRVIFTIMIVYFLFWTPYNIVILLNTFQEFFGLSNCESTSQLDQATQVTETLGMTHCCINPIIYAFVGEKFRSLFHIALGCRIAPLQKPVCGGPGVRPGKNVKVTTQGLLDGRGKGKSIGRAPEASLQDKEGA

| Compound | IC50 [nM] |
| --- | --- |
| CCCOCCOc1ccc(-c2ccc(OC)c(/C=C/C(=O)Nc3ccc([S@@+]([O-])Cc4c(C)ncn4CC)cc3)c2)cc1 [WX065] | 49.6 |
| CCCOCCOc1ccc(-c2ccc(OC)c(/C=C/C(=O)Nc3ccc([S@+]([O-])Cc4c(C)ncn4CC)cc3)c2)cc1 [WX066] | 6.5 |
| CCCOCCOc1ccc(-c2ccc(OCC)c(/C=C/C(=O)Nc3ccc([S@@+]([O-])Cc4cncn4CCC)cc3)c2)cc1 [WX067] | 16.8 |
| CCCOCCOc1ccc(-c2ccc(OCC)c(/C=C/C(=O)Nc3ccc([S+]([O-])Cc4c(C)ncn4CCC)cc3)c2)cc1 (centres unmarked) [WX069] | 35.3 |
| CCCCOCCOc1ccc(-c2ccc(C(F)(F)F)c(/C=C/C(=O)Nc3ccc([S@@+]([O-])Cc4c(C)ncn4CC)cc3)c2)cc1 [WX070] | 39.2 |
| CCCCOCCOc1ccc(-c2ccc(C(F)(F)F)c(/C=C/C(=O)Nc3ccc([S@+]([O-])Cc4c(C)ncn4CC)cc3)c2)cc1 [WX071] | 4.5 |
| CCCCOCCOc1ccc(-c2ccc(C3CCCC3)c(/C=C/C(=O)Nc3ccc([S@@+]([O-])Cc4c(C)ncn4CC)cc3)c2)cc1 [WX072] | 11.9 |
| CCCCOCCOc1ccc(-c2ccc(C3CCCC3)c(/C=C/C(=O)Nc3ccc([S@+]([O-])Cc4c(C)ncn4CC)cc3)c2)cc1 [WX073] | 11.9 |
| CCCOCCOc1ccc(-c2ccc(OC(F)F)c(/C=C/C(=O)Nc3ccc([S@+]([O-])Cc4c(C)ncn4CC)cc3)c2)cc1 [WX074] | 5.4 |
| CCCCOCCOc1ccc(-c2ccc(OC)c(/C=C/C(=O)Nc3ccc([S@+]([O-])Cc4c(C)ncn4CCC)cc3)c2)cc1 [WX075] | 17.3 |
| CCCCOCCOc1ccc(-c2ccc(OC)c(/C=C/C(=O)Nc3ccc([S@@+]([O-])Cc4c(C)ncn4CCC)cc3)c2)cc1 [WX076] | 42.2 |
| CCCOCCOc1ccc(-c2ccc(OC(F)F)c(/C=C/C(=O)Nc3ccc([S@+]([O-])Cc4c(C)ncn4CCC)cc3)c2)cc1 [WX080] | 25.1 |
| CCCCOCCOc1ccc(-c2ccc(OC(F)F)c(/C=C/C(=O)Nc3ccc([S@+]([O-])Cc4c(C)ncn4CCC)cc3)c2)cc1 [WX081] | 12.5 |
| CCCCOCCOc1ccc(-c2ccc(OC(F)F)c(/C=C/C(=O)Nc3ccc([S@@+]([O-])Cc4c(C)ncn4CCC)cc3)c2)cc1 [WX082] | 53.4 |
| CCCCOCCOc1ccc(-c2ccc(OC)c(/C=C/C(=O)Nc3ccc([S@+]([O-])Cc4cncn4CCC)cc3)c2)cc1 [WX085] | 5.2 |
| CCCCOCCOc1ccc(-c2ccc(OC)c(/C=C/C(=O)Nc3ccc([S+]([O-])Cc4cnccc4CC)cc3)c2)cc1 (centres unmarked) [WX086] | 13 |
| CCCCOCCOc1ccc(-c2cc(C)c(OC)c(/C=C/C(=O)Nc3ccc([S@+]([O-])Cc4c(C)ncn4CC)cc3)c2)cc1 [WX090] | 5.5 |
| CCCCOCCOc1ccc(-c2ccc(F)c(/C=C/C(=O)Nc3ccc([S@+]([O-])Cc4c(C)ncn4CC)cc3)c2)cc1 [WX091] | 4.7 |
| CCCCOCCOc1ccc(-c2cc(C)cc(/C=C/C(=O)Nc3ccc([S@+]([O-])Cc4c(C)ncn4CC)cc3)c2)cc1 [WX092] | 3.9 |

Biological target: T2, CCR5 (Homo sapiens, UniProt P51681)
T2 construct: expressed in transfected cells; host or cells: HEK293, clone C13, passage P4
Assay: CCR5 in vitro test: intracellular calcium signal detected by FLIPR
Assay type: cell-based
Details: HEK293 cells expressing CCR5, agonist RANTES at EC80, calcium signal
Description: as §1, §2, §3, §4, §5, §6, §7, §8, §9, §10, §11, §12, §13, §14, §15, §16, §17

T2 sequence (P51681 whole entry, species assumed): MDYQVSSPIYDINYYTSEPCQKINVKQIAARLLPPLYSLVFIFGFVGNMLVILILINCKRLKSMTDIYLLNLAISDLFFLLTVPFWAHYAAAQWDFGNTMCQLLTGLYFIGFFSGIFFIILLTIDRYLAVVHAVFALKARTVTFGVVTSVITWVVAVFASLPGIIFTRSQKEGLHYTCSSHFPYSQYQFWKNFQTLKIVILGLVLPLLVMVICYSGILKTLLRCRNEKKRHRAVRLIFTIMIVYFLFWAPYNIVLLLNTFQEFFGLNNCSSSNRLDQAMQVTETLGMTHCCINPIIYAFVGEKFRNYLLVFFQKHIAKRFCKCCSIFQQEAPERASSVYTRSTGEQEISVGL

| Compound | IC50 [nM] |
| --- | --- |
| CCCOCCOc1ccc(-c2ccc(OC)c(/C=C/C(=O)Nc3ccc([S@@+]([O-])Cc4c(C)ncn4CC)cc3)c2)cc1 [WX065] | 68 |
| CCCOCCOc1ccc(-c2ccc(OC)c(/C=C/C(=O)Nc3ccc([S@+]([O-])Cc4c(C)ncn4CC)cc3)c2)cc1 [WX066] | 10.1 |
| CCCOCCOc1ccc(-c2ccc(OCC)c(/C=C/C(=O)Nc3ccc([S@@+]([O-])Cc4cncn4CCC)cc3)c2)cc1 [WX067] | 0.9 |
| CCCOCCOc1ccc(-c2ccc(OCC)c(/C=C/C(=O)Nc3ccc([S+]([O-])Cc4c(C)ncn4CCC)cc3)c2)cc1 (centres unmarked) [WX069] | 1 |
| CCCCOCCOc1ccc(-c2ccc(C(F)(F)F)c(/C=C/C(=O)Nc3ccc([S@@+]([O-])Cc4c(C)ncn4CC)cc3)c2)cc1 [WX070] | 8.4 |
| CCCCOCCOc1ccc(-c2ccc(C(F)(F)F)c(/C=C/C(=O)Nc3ccc([S@+]([O-])Cc4c(C)ncn4CC)cc3)c2)cc1 [WX071] | 3.4 |
| CCCCOCCOc1ccc(-c2ccc(C3CCCC3)c(/C=C/C(=O)Nc3ccc([S@@+]([O-])Cc4c(C)ncn4CC)cc3)c2)cc1 [WX072] | 5.9 |
| CCCCOCCOc1ccc(-c2ccc(C3CCCC3)c(/C=C/C(=O)Nc3ccc([S@+]([O-])Cc4c(C)ncn4CC)cc3)c2)cc1 [WX073] | 6.5 |
| CCCOCCOc1ccc(-c2ccc(OC(F)F)c(/C=C/C(=O)Nc3ccc([S@+]([O-])Cc4c(C)ncn4CC)cc3)c2)cc1 [WX074] | 3.5 |
| CCCCOCCOc1ccc(-c2ccc(OC)c(/C=C/C(=O)Nc3ccc([S@+]([O-])Cc4c(C)ncn4CCC)cc3)c2)cc1 [WX075] | 2.4 |
| CCCCOCCOc1ccc(-c2ccc(OC)c(/C=C/C(=O)Nc3ccc([S@@+]([O-])Cc4c(C)ncn4CCC)cc3)c2)cc1 [WX076] | 8.5 |
| CCCOCCOc1ccc(-c2ccc(OC(F)F)c(/C=C/C(=O)Nc3ccc([S@+]([O-])Cc4c(C)ncn4CCC)cc3)c2)cc1 [WX080] | 15.1 |
| CCCCOCCOc1ccc(-c2ccc(OC(F)F)c(/C=C/C(=O)Nc3ccc([S@+]([O-])Cc4c(C)ncn4CCC)cc3)c2)cc1 [WX081] | 5.5 |
| CCCCOCCOc1ccc(-c2ccc(OC(F)F)c(/C=C/C(=O)Nc3ccc([S@@+]([O-])Cc4c(C)ncn4CCC)cc3)c2)cc1 [WX082] | 11.4 |
| CCCCOCCOc1ccc(-c2ccc(OC)c(/C=C/C(=O)Nc3ccc([S@+]([O-])Cc4cncn4CCC)cc3)c2)cc1 [WX085] | 5.6 |
| CCCCOCCOc1ccc(-c2ccc(OC)c(/C=C/C(=O)Nc3ccc([S+]([O-])Cc4cnccc4CC)cc3)c2)cc1 (centres unmarked) [WX086] | 1.8 |
| CCCCOCCOc1ccc(-c2cc(C)c(OC)c(/C=C/C(=O)Nc3ccc([S@+]([O-])Cc4c(C)ncn4CC)cc3)c2)cc1 [WX090] | 6.9 |
| CCCCOCCOc1ccc(-c2ccc(F)c(/C=C/C(=O)Nc3ccc([S@+]([O-])Cc4c(C)ncn4CC)cc3)c2)cc1 [WX091] | 4.4 |
| CCCCOCCOc1ccc(-c2cc(C)cc(/C=C/C(=O)Nc3ccc([S@+]([O-])Cc4c(C)ncn4CC)cc3)c2)cc1 [WX092] | 10.1 |
